Test results as given in patent publication US20230365537A1, “POLO LIKE KINASE 4 INHIBITORS” (ORIC Pharmaceuticals, Inc., priority 2021, published 2023).

Key:
CHP-134 cells = assay: CHP134 CellTiter-Glo (CTG) Assay; format: cell-based; settings: Homo sapiens, CHP-134, 120 h, 5 days, viable cells by CellTiter-Glo
How it was run: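 Nine-point 1:3 dilution series, diluted into growth media, added in quadruplicate to CHP-134 cells plated 16 h earlier at 200 cells/well.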

[1] = target: human recombinant Aurora B (Homo sapiens (Human), UniProt Q96GD4); assay: Aurora B Kinase Biochemical Assay (ADP-Glo); settings: ratio of Aurora B IC50 to PLK4 IC50 (selectivity)
human recombinant Aurora B, sequence (Q96GD4 whole entry): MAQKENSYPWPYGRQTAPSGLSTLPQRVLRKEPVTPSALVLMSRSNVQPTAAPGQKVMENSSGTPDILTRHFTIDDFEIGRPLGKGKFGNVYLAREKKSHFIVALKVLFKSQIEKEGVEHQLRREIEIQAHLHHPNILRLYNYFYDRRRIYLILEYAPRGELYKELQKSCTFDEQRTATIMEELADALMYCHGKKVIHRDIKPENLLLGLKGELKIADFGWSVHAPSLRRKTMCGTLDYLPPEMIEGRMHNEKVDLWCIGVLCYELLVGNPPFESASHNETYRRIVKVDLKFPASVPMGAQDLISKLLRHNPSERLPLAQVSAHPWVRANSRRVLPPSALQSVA
How it was run: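 IC50 derived by four-parameter nonlinear fit of ADP-Glo luminescence (ADP produced). Compound was preincubated 15 min at RT with 20 nM recombinant human Aurora B, in 50 mM HEPES pH 7.5, 10 mM MgCl2, 1 mM EGTA, 1 mM DTT, 0.01% Brij-35/BSA.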

[2] = target: human recombinant Aurora A (Homo sapiens (Human), UniProt O14965); assay: Aurora A Kinase Biochemical Assay (ADP-Glo); settings: ratio of Aurora A IC50 to PLK4 IC50 (selectivity)
human recombinant Aurora A, sequence (O14965 whole entry): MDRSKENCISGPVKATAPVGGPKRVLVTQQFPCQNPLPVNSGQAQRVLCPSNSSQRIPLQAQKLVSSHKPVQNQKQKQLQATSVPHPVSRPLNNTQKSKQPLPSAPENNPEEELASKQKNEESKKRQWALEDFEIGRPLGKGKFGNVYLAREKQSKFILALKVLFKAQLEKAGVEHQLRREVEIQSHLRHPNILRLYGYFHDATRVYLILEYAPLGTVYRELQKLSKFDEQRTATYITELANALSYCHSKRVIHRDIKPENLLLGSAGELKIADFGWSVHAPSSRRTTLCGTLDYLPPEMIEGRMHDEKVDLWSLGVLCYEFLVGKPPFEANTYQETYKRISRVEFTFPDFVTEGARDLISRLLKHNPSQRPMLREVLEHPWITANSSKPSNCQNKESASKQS

human recombinant PLK4 = human recombinant PLK4 (Homo sapiens (Human), UniProt O00444); assay: PLK4 Biochemical Assay (ADP-Glo); settings: 0.5 nM PLK4, 8.0 µM ATP, 4.7 µM MBP, 6 hours at RT
human recombinant PLK4, sequence (O00444 whole entry): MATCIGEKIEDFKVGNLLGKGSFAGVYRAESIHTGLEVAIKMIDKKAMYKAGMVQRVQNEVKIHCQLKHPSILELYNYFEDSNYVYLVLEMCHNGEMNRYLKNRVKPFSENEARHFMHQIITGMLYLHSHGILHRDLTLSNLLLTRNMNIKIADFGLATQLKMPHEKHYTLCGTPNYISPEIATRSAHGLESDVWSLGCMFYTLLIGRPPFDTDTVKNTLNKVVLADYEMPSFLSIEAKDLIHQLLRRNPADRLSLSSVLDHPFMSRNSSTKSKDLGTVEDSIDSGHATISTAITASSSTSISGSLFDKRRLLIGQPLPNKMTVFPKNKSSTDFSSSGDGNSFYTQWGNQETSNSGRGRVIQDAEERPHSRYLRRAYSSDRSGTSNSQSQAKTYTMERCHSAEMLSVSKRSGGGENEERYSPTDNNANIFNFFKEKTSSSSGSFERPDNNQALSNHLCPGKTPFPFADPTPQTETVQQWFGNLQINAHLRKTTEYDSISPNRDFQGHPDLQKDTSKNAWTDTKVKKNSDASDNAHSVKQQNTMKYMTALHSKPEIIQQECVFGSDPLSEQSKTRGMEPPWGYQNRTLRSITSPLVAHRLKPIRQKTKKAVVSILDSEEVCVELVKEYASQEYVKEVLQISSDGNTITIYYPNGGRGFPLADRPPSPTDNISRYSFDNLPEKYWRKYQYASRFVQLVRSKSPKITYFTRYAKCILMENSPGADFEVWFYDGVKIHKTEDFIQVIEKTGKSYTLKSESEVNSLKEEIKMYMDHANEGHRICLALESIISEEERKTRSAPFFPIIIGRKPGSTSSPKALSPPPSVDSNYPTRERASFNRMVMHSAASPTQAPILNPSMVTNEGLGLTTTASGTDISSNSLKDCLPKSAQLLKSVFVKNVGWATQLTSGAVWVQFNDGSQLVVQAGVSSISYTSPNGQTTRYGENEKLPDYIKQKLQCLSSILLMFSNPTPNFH
How it was run: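 Luminescent ADP-Glo detection quantified ADP production, with ATP depletion for 40 min and detection for 30 min at room temperature. Compound and PLK4 (1.0 nM stock addition) were preincubated 15 min in HEPES pH 7.5 buffer containing MgCl2, EGTA, DTT, Brij-35 and BSA. IC50 values were obtained by four-parameter nonlinear regression.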

Structure (SMILES)	IC50 (CHP-134 cells) [nM]	[Aurora B IC50 (nM)]/[PLK4 IC50 (nM)] [1]	[Aurora A IC50 (nM)]/[PLK4 IC50 (nM)] [2]	IC50 (human recombinant PLK4) [nM]
COc1ccc2c(c1)[C@]1(C[C@H]1c1ccc3c(Nc4nc(CCO)cnc4OC)n[nH]c3c1)C(=O)N2 [Example 56, (1R,2S)-2-(3-{[6-(2-hydroxyethyl)-3-methoxypyrazin-2-yl]amino}-1H-indazol-6-yl)-5′-methoxyspiro[cyclopropane-1,3′-indol]-2′(1′H)-one]	2680	423.7686	1047.694	3.84
COc1ccc2c(c1)[C@]1(C[C@H]1c1ccc3c(Nc4nc(S(C)(=O)=O)ccc4OC)n[nH]c3c1)C(=O)N2 [Example 196, (1R,2S)-2-(3-{[6-(methanesulfonyl)-3-methoxypyridin-2-yl]amino}-1H-indazol-6-yl)-5′-methoxyspiro[cyclopropane-1,3′-indol]-2′(1′H)-one]	1670	100.8137	732.3689	3.32
COc1ccc2c(c1)[C@]1(C[C@H]1c1ccc3c(Nc4ncc(S(=O)(=O)N(C)C)cc4OC)n[nH]c3c1)C(=O)N2 [Example 204, 5-methoxy-6-({6-[(1R,2S)-5′-methoxy-2′-oxo-1’,2′-dihydrospiro[cyclopropane-1,3′-indol]-2-yl]-1H-indazol-3-yl}amino)-N,N-dimethylpyridine-3-sulfonamide]	122	222.8395	342.9630	0.81
COc1ccc2c(c1)[C@]1(C[C@H]1c1ccc3c(Nc4cc(OC)c(S(N)(=O)=O)cc4OC)n[nH]c3c1)C(=O)N2 [Example 212, 2,5-Dimethoxy-4-({6-[(1R,2S)-5′-methoxy-2′-oxo-l′,2′-dihydrospiro[cyclopropane-1,3′-indol]-2-yl]-1H-indazol-3-yl}amino)benzene-1-sulfonamide]	161	280	353.1230	1.58
CNS(=O)(=O)c1cc(OC)c(Nc2n[nH]c3cc([C@@H]4C[C@@]45C(=O)Nc4ccc(OC)cc45)ccc23)cc1C [Example 210, 5-methoxy-4-({6-[(1R,2S)-5′-methoxy-2′-oxo-1′,2′-dihydrospiro[cyclopropane-1,3′-indol]-2-yl]-1H-indazol-3-yl}amino)-N,2-dimethylbenzene-1-sulfonamide]	65.5	316.5430	462.3887	1.35
COc1ccc2c(c1)[C@]1(C[C@H]1c1ccc3c(Nc4ncc(S(=O)(=O)N5CCOCC5)cc4OC)n[nH]c3c1)C(=O)N2 [Example 255]	380	566.4948	840.1202	1.16
COc1ccc2c(c1)[C@]1(C[C@H]1c1ccc3c(Nc4cc(C(C)(C)O)cnc4OC)n[nH]c3c1)C(=O)N2 [Example 226, (1R,2S)-2-(3-{[5-(2-hydroxypropan-2-yl)-2-melhoxypyridin-3-yl]amino}-1H-indazol-6-yl)-5′-methoxyspiro[cyclopropane-1,3′-indol]-2′(1′H)-one]	2150	474.6155	2759.6376	4.75
COc1ccc2c(c1)[C@]1(C[C@H]1c1ccc3c(Nc4ccc(C)nc4OC)n[nH]c3c1)C(=O)N2 [Example 150, (1R,2S)-5′-methoxy-2-{3-[(2-methoxy-6-methylpyridin-3-yl)amino]-1H-indazol-6-yl}spiro[cyclopropane-1,3′-indol]-2′(1′H)-one]	3160	366.7569	720.7185	8.13
COc1ccc2c(c1)[C@]1(C[C@H]1c1ccc3c(Nc4cc(C(=O)N5CCOCC5)ccc4OC)n[nH]c3c1)C(=O)N2 [Example 180, (1R,2S)-5′-methoxy-2-{3-[2-methoxy-5-(morpholine-4-carbonyl)anilino]-1H-indazol-6-yl}spiro[cyclopropane-1,3′-indol]-2′(1′H)-one]	741	1996.8465	5455.5011	2.85
COc1ccc2c(c1)[C@]1(C[C@H]1c1ccc3c(Nc4nc(C)nc(N5CCS(=O)(=O)CC5)c4Cl)n[nH]c3c1)C(=O)N2 [Example 58, 4-[5-chloro-6-({6-[(1R,2S)-5′-methoxy-2′-oxo-1,2′-dihydrospiro[cyclopropane-1,3′-indol]-2-yl]-1H-indazol-3-yl}amino)-2-methylpyrimidin-4-yl]-1λ6-thiomorpholine-1,1-dione]	157	140.6736	1393.782	2.32
COc1ccc2c(c1)[C@]1(C[C@H]1c1ccc3c(Nc4nc(C5COC5)ncc4OC)n[nH]c3c1)C(=O)N2 [Example 119, (1R,2S)-5′-methoxy-2-(3-{[5-methoxy-2-(oxetan-3-yl)pyrimidin-4-yl)amino}-1H-indazol-6-yl)spiro[cyclopropane-1,3′-indol]-2′(1′H)-one]	2660	973.5516	870.2770	1.59
COc1ccc2c(c1)[C@]1(C[C@H]1c1ccc3c(Nc4cc(C(=O)N(C)C)ncc4OC)n[nH]c3c1)C(=O)N2 [Example 198, 5-methoxy-4-({6-[(1R,2S)-5′-methoxy-2′-oxo-1′,2′-dibydrospiro[cyclopropane-1,3′-indol]-2-yl]-1H-indazol-3-yl}amino)-N,N-dimethylpyridine-2-carboxamide]	10000	5752.4160	5752.4160	8.69
